Measurements reported in patent publication US10106625B2, “Pharmaceutical compositions with enhanced performance and improved processability” (HERCULES INCORPORATED, priority 2013, dated 2018).
Where two headings read alike, the source gives them in different places.

How the values were obtained:
[1] = Kinetic solubility of spray dried dispersion with Ezetimibe in FaSSIF; assay type: physicochemical
Experimental: Hg reduced pressure for 24 hours.

[2] = 120 min
Experimental: Dissolution was performed using a pDISS Profiler™ (available from Pion Inc., MA, USA). Each spray-dried powder was weighed so that the volume adjusted equivalent of the typical daily dose of the drug was added to each vial and compensation was made for the drug load of the samples. For example, the target API was 9.5 mg for Felpdipine in 20 ml of FaSSIF. The spray dried sample containing 9.5 mg API of Felpdipine was weighed. For Ezetimibe, the spray dried sample containing 10 mg API was weighed. The weighed spray dried samples were added to 20 ml of FaSSIF in vials and then heated to 37° C. The vials were maintained at a constant stirring speed of 300 RPM. Dissolution measurements were taken by in situ fiber optic probes at various time points and these measurements were analyzed at the appropriate wavelength for dissolved API concentration. Based on the in situ measurement data, various solubility parameters were calculated.

[3] = cited from earlier work

**Q.** Which C120 ([1]; Ezetimibe SDD, 60% drug load, API concentration at 120 minutes) does the source give for `O=C1[C@H](CC[C@H](O)c2ccc(F)cc2)[C@@H](c2ccc(O)cc2)N1c1ccc(F)cc1` [Ezetimibe API, Ezetimibe] here?
**A.** 14 µg/mL

**Q.** And the AUC120 ([1]; Ezetimibe SDD, 60% drug load, FaSSIF 37° C., API concentration over first 120 minutes)?
**A.** 1,626 μg * min/mL

**Q.** And the “AUC(Rel)” value ([1]; Ezetimibe, ratio of AUC120 of polymer/drug dispersion versus API alone)?
**A.** 1.0

**Q.** For `CCOC(=O)C1=C(C)NC(C)=C(C(=O)OC)C1c1cccc(Cl)c1Cl` (centres unmarked) [Felodipine API, Felodipine], which C120 [2] is on record?
**A.** 28 µg/mL

**Q.** With `CCOC(=O)N1c2ccc(C(F)(F)F)cc2[C@@H](N(Cc2cc(C(F)(F)F)cc(C(F)(F)F)c2)C(=O)OC)C[C@H]1CC` [torcetrapib] as the molecule, how does the aqueous solubility [3] read?
**A.** less than 0.04 μg/ml
